Experimental data published in patent US8377949B2, “Quinazolinedione chymase inhibitors” (Boehringer Ingelheim International GmbH, priority 2007, dated 2013).

Target: T1, Chymase (Homo sapiens, UniProt P23946)
T1 sequence (P23946 22-247): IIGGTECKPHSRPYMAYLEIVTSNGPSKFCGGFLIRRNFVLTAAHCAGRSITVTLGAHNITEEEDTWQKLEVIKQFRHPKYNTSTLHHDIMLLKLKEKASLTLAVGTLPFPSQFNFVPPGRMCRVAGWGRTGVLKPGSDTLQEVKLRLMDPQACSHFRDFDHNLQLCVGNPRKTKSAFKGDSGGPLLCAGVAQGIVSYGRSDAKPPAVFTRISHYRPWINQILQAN
Experiment: In vitro Assay for Inhibition of Chymase
Type: biochemical
Conditions: 500 pM chymase, 100 nM rhodamine 110 peptide substrate, 1 hour at 28° C., fluorescence
Procedure: In vitro Assay for Inhibition of Chymase
Chymase assays were performed in a total volume of 15 μL in Corning black opaque 384-well microtiter plates with a non-binding surface (Coming, N.Y.). The assay buffer was comprised of 20 mM Tris HCl pH 8.0, 50 mM NaCl, 0.01% CHAPS. The test compounds were serially diluted 3-fold with neat DMSO in a 96-well polypropylene plate from a 10 mM DMSO stock to give the 10 point dose response curve. 3 μL of the resulting DMSO solution were transferred to a 384-well polypropylene plate in duplicate, and 37 μL of assay buffer was added. Chymase was added to the assay plate in 3 uL of assay buffer followed by 2 uL of the appropriate compound dilution using a PlateMate Plus (Matrix Technologies Corp., Hudson, N.H.). The reaction was initiated by the addition of 10 uL rhodamine 110, bis-(succinoyl-L-alanyl-L-alanyl-L-prolyl-L-phenylalanylamide) (American Peptides, Sunnyvale, Calif.) in assay buffer containing 150 μM tris(2-carboxyethyl)phosphine (TCEP, Pierce Chemical, Rockford, Ill.) using a Multidrop (Thermo Electron Corp., Waltham, Mass.). Final assay concentrations were 500 pM chymase, 100 nM substrate, 100 μM TCEP, and 1% DMSO. The plates were incubated at 28° C. and 80% humidity for 1 hour, at which time the fluorescence was read on a Viewlux 1430 Microplate Imager (Perkin Elmer Life Sciences, Boston, Mass.) with 485 nm excitation, 530 nm emission, and a fluorescein dichroic mirror. The percentage of control values were calculated relative to assay blanks containing complete reaction minus chymase and a 100% control containing assay buffer with 1% DMSO in place of compound. IC50 values were obtained by fitting the data using XLFit4 (IDBS Software).

IC50: 4 nM
SMILES: Cc1cc(C)c2c(Cn3c(=O)n(C4(CC(=O)O)CCCCC4)c(=O)c4ccccc43)nsc2c1 [{1-[1-(4,6-Dimethyl-1,2-benzisothiazol-3-ylmethyl)-2,4-dioxo-1,4-dihydro-2H-quinazolin-3-yl]-cyclohexyl}-acetic acid]
